Structures are written as SMILES. Where two headings read alike, the source gives them in different places.

This note sets out measurements from paper PMC10071561, “Conformation-dependent ligand hot spots in the spliceosomal RNA helicase BRR2” (Acta Crystallographica. Section D, Structural Biology, 2023).

In test [1] the target is T1, hBRR2 (spliceosomal RNA helicase BRR2) (Homo sapiens, UniProt O75643). Nature of the test: co-crystal structure (X-ray, […] Å). It counts as binding. The arrangement: gene SNRNP200; hBRR2T1, residues 395-2129.
T1 sequence (O75643 395-2129): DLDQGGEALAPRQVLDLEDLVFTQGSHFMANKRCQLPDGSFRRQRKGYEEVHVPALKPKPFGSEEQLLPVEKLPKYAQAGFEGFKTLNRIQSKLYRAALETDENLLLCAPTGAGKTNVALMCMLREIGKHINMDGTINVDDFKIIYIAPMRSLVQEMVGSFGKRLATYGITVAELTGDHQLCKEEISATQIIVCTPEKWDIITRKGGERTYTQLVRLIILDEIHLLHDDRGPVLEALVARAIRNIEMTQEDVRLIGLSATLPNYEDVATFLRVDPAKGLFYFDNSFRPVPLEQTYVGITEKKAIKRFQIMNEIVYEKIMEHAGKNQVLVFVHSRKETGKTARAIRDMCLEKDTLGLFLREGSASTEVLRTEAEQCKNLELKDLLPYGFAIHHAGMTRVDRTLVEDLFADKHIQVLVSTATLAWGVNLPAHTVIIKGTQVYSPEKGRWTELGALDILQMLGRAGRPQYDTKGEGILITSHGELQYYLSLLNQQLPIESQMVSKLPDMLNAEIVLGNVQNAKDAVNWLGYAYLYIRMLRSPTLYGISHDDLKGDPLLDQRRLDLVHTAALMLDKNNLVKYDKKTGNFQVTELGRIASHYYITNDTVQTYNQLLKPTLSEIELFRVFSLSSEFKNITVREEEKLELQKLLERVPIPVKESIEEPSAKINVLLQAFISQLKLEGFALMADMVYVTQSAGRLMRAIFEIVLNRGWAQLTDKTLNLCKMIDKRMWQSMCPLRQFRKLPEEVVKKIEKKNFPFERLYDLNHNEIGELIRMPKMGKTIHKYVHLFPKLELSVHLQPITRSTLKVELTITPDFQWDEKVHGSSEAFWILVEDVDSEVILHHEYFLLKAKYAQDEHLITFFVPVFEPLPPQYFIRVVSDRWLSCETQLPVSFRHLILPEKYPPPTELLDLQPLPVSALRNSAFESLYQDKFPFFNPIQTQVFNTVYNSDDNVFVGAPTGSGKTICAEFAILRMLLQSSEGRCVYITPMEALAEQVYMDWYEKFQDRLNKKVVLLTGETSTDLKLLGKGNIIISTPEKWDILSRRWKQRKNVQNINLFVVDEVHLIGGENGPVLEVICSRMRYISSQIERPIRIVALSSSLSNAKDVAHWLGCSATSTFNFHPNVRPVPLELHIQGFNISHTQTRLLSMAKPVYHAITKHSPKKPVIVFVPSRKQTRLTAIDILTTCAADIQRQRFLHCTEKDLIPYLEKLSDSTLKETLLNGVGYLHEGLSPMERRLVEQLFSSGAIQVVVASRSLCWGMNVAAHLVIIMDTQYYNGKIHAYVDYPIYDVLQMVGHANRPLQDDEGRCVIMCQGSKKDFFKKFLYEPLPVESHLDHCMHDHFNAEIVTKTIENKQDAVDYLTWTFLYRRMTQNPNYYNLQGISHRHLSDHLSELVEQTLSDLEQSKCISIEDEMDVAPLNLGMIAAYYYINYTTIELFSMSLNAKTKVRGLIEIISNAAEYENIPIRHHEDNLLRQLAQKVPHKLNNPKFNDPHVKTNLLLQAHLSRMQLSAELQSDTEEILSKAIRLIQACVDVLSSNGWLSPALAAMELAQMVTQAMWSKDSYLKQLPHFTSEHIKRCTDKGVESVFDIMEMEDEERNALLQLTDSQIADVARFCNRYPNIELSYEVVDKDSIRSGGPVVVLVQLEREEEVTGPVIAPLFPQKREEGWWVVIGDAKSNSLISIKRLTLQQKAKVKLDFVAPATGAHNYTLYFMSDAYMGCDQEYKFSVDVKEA
The target of test [2] is T1, hBRR2 (spliceosomal RNA helicase BRR2). Nature of the test: crystal soaking, X-ray structure ([…] Å); also U4/U6 unwinding inhibition. It counts as biochemical. Further details: gene SNRNP200; hBRR2T1 (residues 395-2129), N-terminal His tag not cleaved, baculovirus/High Five insect cells; isolated, without hJab1deltaC, in U4*/U6 unwinding assay.
For test [3] the target is unchanged. The test is described as above. It counts as biochemical. The arrangement: gene SNRNP200; hBRR2T1 (residues 395-2129), N-terminal His tag not cleaved, baculovirus/High Five insect cells; isolated, without hJab1deltaC, in U4*/U6 unwinding assay. The source holds these as a separate data set.

Regarding `[H]/N=C(/N)NS(=O)(=O)c1ccc(N)cc1` [SG, 4-amino-N-(aminoiminomethyl)benzolsulfonamide], in test [1], the “co-crystal structure (X-ray, 2.87 Å)” value is “In this hBRR2^T1 crystal structure, sulfaguanidine is positioned at the interface between the two helicase cassettes”. The term IC50 denotes the midpoint of a concentration-inhibition curve. Low readings indicate inhibition by little substance, high ones a need for much substance. In turn, `O=S(=O)(NO)c1ccccc1` [compound 24, Piloty's acid] showed an IC50 in test [2] greater than 90 µM. Compound `O=S(=O)(N=C(S)S)c1ccccc1` [compound 50] returned an IC50 in test [3] greater than 1000 µM.
